Where two headings read alike, the source gives them in different places.
Key:
[1] = Effects of various cyclodextrins on stabilization of macrolide compound 11107B in Dulbecco's PBS (-) at 25° C. (HPLC purity); assay type: physicochemical
Description: The macrolide compound 11107B (hereinafter sometimes abbreviated as 11107B) and various cyclodextrins were dissolved in concentrations of 0.1 mg/mL and 10 mg/mL, respectively, in Dulbecco's PBS (−). The 11107B solution and cyclodextrin solution were mixed in equal volumes, and incubation was immediately begun in at thermostatic incubator at 25° C. The solution was sampled at the start (0 hour) and after 24 and 48 hours had elapsed, the samples were analyzed by high performance liquid chromatography (HPLC) under the following analysis conditions (A), and the purity of the 11107B was calculated from the following equation using the chromatogram thus obtained.
<HPLC Analysis Conditions (A)>
Column: L-column, 4.6×150 mm, Chemicals Evaluation and Research Institute
Column temperature: 35° C.
Detection wavelength: 241 nm
Mobile phase A: 0.1% (v/v) formic acid•10% (v/v) acetonitrile
Mobile phase B: 0.1% (v/v) formic acid•90% (v/v) acetonitrile
Gradient program: B=10% (start)→B=40% (15 minutes)→B=100% (20 minutes)→B=10% (20.01 minutes)→B=10% (23 minutes, stop)<
(§1) <Calculation Equation> 11107B purity(%)=[peak surface area value of 11107B/(sum of peak surface area value of 11107B+peak surface area value of impurities and decomposition products)]×100

[2] = assay type: physicochemical
Description: The macrolide compound 11107B was dissolved in Dulbecco's PBS (−) in a concentration of 0.1 mg/mL, and β-CD in concentrations of 10, 3, 1, and 0.3 mg/mL. The 11107B solution and β-CD solution were mixed in equal volumes, and incubation was immediately begun in a 40° C. thermostatic incubator. The solution was sampled at the start (0 hour) and after 1, 2, 4 and 6 hours had elapsed, the samples were analyzed by HPLC under the analysis conditions (A) of Example 1, and the concentration of the 11107B was calculated. Since the plot of the 11107B concentration versus elapsed time was substantially linear, it was concluded that decomposition was occurring in pseudo first-order reaction, and the apparent decomposition rate constant kobs was calculated from the slope thereof. kobs was termed k0 when no β-CD was prevent. According to a report by Ma et al. (J. Pharm. Sci. (2000), 89 (2), 275-287), 1/(k0-kobs) was plotted against the inverse of the β-CD concentration, kc, which is kobs when a large excess of β-CD was present, was calculated from an intercept thereof, and the stabilization constant Kc was calculated from the slope.

[3] = Effect of β-CD and methylated β-CD on stabilization of 11107B in Dulbecco's PBS (-) at 25° C. (HPLC purity); assay type: physicochemical
Description: as §1
The macrolide compound 11107B and β-CD or methylated β-CD were dissolved in Dulbecco's PBS (−) in concentrations of 0.1 mg/mL and 10 mg/mL, respectively. The 11107B solution and β-CD solution were mixed in equal volumes, and incubation was immediately begun in thermostatic incubator at 25° C. The solution was sampled at the start (0 hour) and after 24, 48 and 120 hours had elapsed, and the samples were analyzed by HPLC under the following analysis conditions (B). The purity of the 11107B was calculated from the equation in Example 1 using the resulting chromatogram.
<HPLC Analysis Conditions (B)>
Column: Develosil ODS UG-3, 4.6×50 mm, 3 μm (made by Nomura Chemical)
Column temperature: 40° C.
Detection wavelength: 240 nm
Eluate: water/methanol gradient
• A=water, B=methanol • 45-55% B (0 to 5 minutes), 55% B (5 to 13 minutes) • 55-70% B (13 to 21 minutes), 45% B (21 to 25 minutes) Retention time: 13 minutes (11107B)

[4] = assay type: physicochemical; conditions: for Purity of macorolide compound 11107B: freeze-dried preparation
Description: as §1
Lactose monohydrate was dissolved in purified water in a concentration of 10 mg/mL and HP-β-CD in concentrations of 0, 10 and 200 mg/mL. The macrolide compound 11107B was dissolved in a concentration of 0.1 mg/mL in each of these three types of solution. 1 mL of each solution was put into vials and freeze-dried. The freeze-dried preparations thus obtained were stored for one month at −20° C., 40° C. and 60° C., after which 1 mL of 50% acetonitrile aqueous solution was added to each vial to dissolve the preparation. This product was analyzed by HPLC analysis under the conditions (A) of Example 1, and the purity of the 11107B was calculated according to the equation of Example 1.

[5] = β-CD concentration 0.15 mg/mL, PBS (-), 40° C.
[6] = β-CD concentration 0.5 mg/mL, PBS (-), 40° C.
[7] = β-CD concentration 1.5 mg/mL, PBS (-), 40° C.
[8] = β-CD concentration 5 mg/mL, PBS (-), 40° C.

CCC(O)C(C)C1OC1CC(C)/C=C/C=C(\C)C1OC(=O)CC(O)CCC(C)(O)C(OC(C)=O)/C=C/C1C (stereo not drawn) [11107B, (8E,12E,14E)-7-acetoxy-3,6,21-trihydroxy-6,10,12,16,20-pentamethyl-18,19-epoxytricosa-8,12,14-trien-11-olide]
Purity of macorolide compound 11107B ([1]; CD not added, 0 h, Dulbecco's PBS (-)): 99% | Purity of macorolide compound 11107B ([1]; CD not added, 24 h, Dulbecco's PBS (-)): 62% | Purity of macorolide compound 11107B ([1]; CD not added, 48 h, Dulbecco's PBS (-)): 35% | Purity of macorolide compound 11107B ([1]; HP-α-CD (10 mg/mL solution mixed in equal volume with 0.1 mg/mL 11107B), 0 h, PBS (-)): 99% | Purity of macorolide compound 11107B ([1]; HP-α-CD (10 mg/mL solution mixed in equal volume with 0.1 mg/mL 11107B), 24 h, PBS (-)): 71% | Purity of macorolide compound 11107B ([1]; HP-α-CD (10 mg/mL solution mixed in equal volume with 0.1 mg/mL 11107B), 48 h, PBS (-)): 47% | Purity of macorolide compound 11107B ([1]; HP-β-CD (10 mg/mL solution mixed in equal volume with 0.1 mg/mL 11107B), 0 h, PBS (-)): 100% | Purity of macorolide compound 11107B ([1]; HP-β-CD (10 mg/mL solution mixed in equal volume with 0.1 mg/mL 11107B), 24 h, PBS (-)): 93% | Purity of macorolide compound 11107B ([1]; HP-β-CD (10 mg/mL solution mixed in equal volume with 0.1 mg/mL 11107B), 48 h, PBS (-)): 86% | Purity of macorolide compound 11107B ([1]; HP-γ-CD (10 mg/mL solution mixed in equal volume with 0.1 mg/mL 11107B), 0 h, PBS (-)): 99% | Purity of macorolide compound 11107B ([1]; HP-γ-CD (10 mg/mL solution mixed in equal volume with 0.1 mg/mL 11107B), 24 h, PBS (-)): 83% | Purity of macorolide compound 11107B ([1]; HP-γ-CD (10 mg/mL solution mixed in equal volume with 0.1 mg/mL 11107B), 48 h, PBS (-)): 67% | Purity of macorolide compound 11107B ([1]; α-CD (10 mg/mL solution mixed in equal volume with 0.1 mg/mL 11107B), 0 h, PBS (-)): 99% | Purity of macorolide compound 11107B ([1]; α-CD (10 mg/mL solution mixed in equal volume with 0.1 mg/mL 11107B), 24 h, PBS (-)): 71% | Purity of macorolide compound 11107B ([1]; α-CD (10 mg/mL solution mixed in equal volume with 0.1 mg/mL 11107B), 48 h, PBS (-)): 47% | Purity of macorolide compound 11107B ([1]; β-CD (10 mg/mL solution mixed in equal volume with 0.1 mg/mL 11107B), 0 h, PBS (-)): 100% | Purity of macorolide compound 11107B ([1]; β-CD (10 mg/mL solution mixed in equal volume with 0.1 mg/mL 11107B), 24 h, PBS (-)): 95% | Purity of macorolide compound 11107B ([1]; β-CD (10 mg/mL solution mixed in equal volume with 0.1 mg/mL 11107B), 48 h, PBS (-)): 90% | Purity of macorolide compound 11107B ([1]; γ-CD (10 mg/mL solution mixed in equal volume with 0.1 mg/mL 11107B), 0 h, PBS (-)): 100% | Purity of macorolide compound 11107B ([1]; γ-CD (10 mg/mL solution mixed in equal volume with 0.1 mg/mL 11107B), 24 h, PBS (-)): 88% | Purity of macorolide compound 11107B ([1]; γ-CD (10 mg/mL solution mixed in equal volume with 0.1 mg/mL 11107B), 48 h, PBS (-)): 77% | stabilization constant Kc ([2]; 0.05 mg/mL): ≥ 1500 | k0 (kobs when no β-CD was present) ([2]; PBS (-), 40° C., estimated): 0.152 h⁻¹ | kc (kobs when a large excess of β-CD was present) ([2]; from intercept of 1/(k0-kobs) versus inverse of β-CD concentration, PBS (-), 40° C.): 0.004 h⁻¹ | kobs (apparent decomposition rate constant) ([2]; β-CD concentration 0 mg/mL, PBS (-), 40° C.): 0.152 h⁻¹ | 1/(k0 − kobs) [2, 5]: 39.057 | k0 − kobs [2, 5]: 0.026 | kobs (apparent decomposition rate constant) [2, 5]: 0.126 h⁻¹ | 1/(k0 − kobs) [2, 6]: 16.736 | k0 − kobs [2, 6]: 0.060 | kobs (apparent decomposition rate constant) [2, 6]: 0.092 h⁻¹ | 1/(k0 − kobs) [2, 7]: 9.971 | k0 − kobs [2, 7]: 0.100 | kobs (apparent decomposition rate constant) [2, 7]: 0.052 h⁻¹ | 1/(k0 − kobs) [2, 8]: 7.590 | k0 − kobs [2, 8]: 0.132 | kobs (apparent decomposition rate constant) [2, 8]: 0.020 h⁻¹ | decomposition rate of included 11107B relative to 11107B that was not included ([2]; β-CD inclusion, PBS (-), 40° C.): 1/30 | Purity of macorolide compound 11107B ([3]; CD not added, 0 h): 98% | Purity of macorolide compound 11107B ([3]; CD not added, 24 h): 59% | Purity of macorolide compound 11107B ([3]; CD not added, 48 h): 34% | Purity of macorolide compound 11107B ([3]; CD not added, 120 h): 3% | Purity of macorolide compound 11107B ([3]; methylated β-CD (10 mg/mL solution mixed in equal volume with 0.1 mg/mL 11107B), 0 h): 98% | Purity of macorolide compound 11107B ([3]; methylated β-CD (10 mg/mL solution mixed in equal volume with 0.1 mg/mL 11107B), 24 h): 95% | Purity of macorolide compound 11107B ([3]; methylated β-CD (10 mg/mL solution mixed in equal volume with 0.1 mg/mL 11107B), 48 h): 92% | Purity of macorolide compound 11107B ([3]; methylated β-CD (10 mg/mL solution mixed in equal volume with 0.1 mg/mL 11107B), 120 h): 80% | Purity of macorolide compound 11107B ([3]; β-CD (10 mg/mL solution mixed in equal volume with 0.1 mg/mL 11107B), 0 h): 98% | Purity of macorolide compound 11107B ([3]; β-CD (10 mg/mL solution mixed in equal volume with 0.1 mg/mL 11107B), 24 h): 95% | Purity of macorolide compound 11107B ([3]; β-CD (10 mg/mL solution mixed in equal volume with 0.1 mg/mL 11107B), 48 h): 90% | Purity of macorolide compound 11107B ([3]; β-CD (10 mg/mL solution mixed in equal volume with 0.1 mg/mL 11107B), 120 h): 74% | stability in a solid form in a freeze-dried preparation on addition of cyclodextrin [4]: sufficiently stabilized | Purity of macorolide compound 11107B ([4]; HP-β-CD concentration 10 mg/mL, stored one month at 40° C.): 99.76 ± 0.08% | Purity of macorolide compound 11107B ([4]; HP-β-CD concentration 10 mg/mL, stored one month at 60° C.): 98.60 ± 0.06% | Purity of macorolide compound 11107B ([4]; HP-β-CD concentration 10 mg/mL, stored one month at −20° C.): 99.73 ± 0.01% | Purity of macorolide compound 11107B ([4]; HP-β-CD concentration 200 mg/mL, stored one month at 40° C.): 99.82 ± 0.02% | Purity of macorolide compound 11107B ([4]; HP-β-CD concentration 200 mg/mL, stored one month at 60° C.): 98.90 ± 0.05% | Purity of macorolide compound 11107B ([4]; HP-β-CD concentration 200 mg/mL, stored one month at −20° C.): 99.70 ± 0.00% | Purity of macorolide compound 11107B ([4]; HP-β-CD not added, stored one month at 40° C.): 98.17 ± 0.12% | Purity of macorolide compound 11107B ([4]; HP-β-CD not added, stored one month at 60° C.): 94.63 ± 0.11% | Purity of macorolide compound 11107B ([4]; HP-β-CD not added, stored one month at −20° C.): 99.56 ± 0.01%

Reference: patent US7655442B2, “Method for stabilizing macrolide compounds” (Eisai R&D Management Co., Ltd., priority 2004, dated 2010)
